Measured values as given in patent publication US6864056B1 (priority 2000, dated 2005).

System: dAU6 NH3 oligonucleotide substrate
Type: biochemical

In the case of gelonin, the “level of activity (fluorescence normalized with negative control, FIG. 3)” value is reported as “highest level of activity”.
